Reference: patent US6462072B1, “Cyclic ester or amide derivatives” (GPI NIL Holdings, Inc., priority 1998, dated 2002)

Target: FKBP (Homo sapiens, UniProt P62942)
Experiment: Ki test procedure: inhibition of peptidyl-prolyl isomerase (rotamase) activity, chymotrypsin-coupled assay
Type: biochemical
Settings: read-out: Ki (apparent Ki, rotamase inhibition)
Excerpt: Inhibition of the peptidyl-prolyl isomerase (rotamase) activity of the inventive compounds can be evaluated by known methods described in the literature (Harding, M. W. et al. Nature 341: 758-760 (1989); Holt et al. J. Am. Chem. Soc. 115: 9923-9938). These values are obtained as apparent Ki's and are presented in Table I. The cis-trans isomerization of an alanine-proline bond in a model substrate, N-succinyl-Ala-Ala-Pro-Phe-p-nitroanilide, is monitored spectro-photometrically in a chymotrypsin-coupled assay, which releases para-nitroanilide from the trans form of the substrate. The inhibition of this reaction caused by the addition of different concentrations of inhibitor is determined, and the data is analyzed as a change in first-order rate constant as a function of inhibitor concentration to yield the apparent Kivalues.
In a plastic cuvette are added […] of ice cold assay buffer (25 mM HEPES, pH 7.8, 100 mM NaCl), […] of FKBP (2.5 mM in 10 mM Tris-Cl pH 7.5, 100 mM NaCl, 1 mM dithiothreitol), […] of chymotrypsin (50 mg/mL in 1 mM HCl) and 10 mL of test compound at various concentrations in dimethyl sulfoxide. […]
The absorbance at 390 nm versus time is monitored for 90 sec using a spectrophotometer and the rate constants are determined from the absorbance versus time data files.

FKBP, sequence (P62942 whole entry): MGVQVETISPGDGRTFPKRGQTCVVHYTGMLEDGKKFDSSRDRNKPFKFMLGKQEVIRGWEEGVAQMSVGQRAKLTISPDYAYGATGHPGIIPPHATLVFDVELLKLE

Ki: 5.64 µM
SMILES: CCC(C)(C)C(=O)C(=O)N1CCC[C@H]1C(=O)OC1CCC(c2ccccc2)(c2ccccc2)CC1 [4,4-diphenylcyclohexl (2S)-1-(3,3-dimethyl-2-oxopentanoyl)-pyrrolidine-2-carboxylate]
